Experimental data: patent publication US20220289753A1, “SHP2 INHIBITORS” (IRBM S.P.A., priority 2019, published 2022)

These compounds were tested against T1, SHP-2 enzyme (Met1-Leu525) (Homo sapiens, UniProt Q06124) (assay: SHP2 inhibition enzymatic assay (DiFMUP substrate, IRS1 peptide activation)). Settings: SHP2 wt; activated by 500 nM IRS1 peptide; 75 μM DiFMUP substrate.
T1 construct: synthetized by Origene, Met1-Leu525, cat #TP750155; purchased Origene TP750155
T1 sequence (Q06124 1-525): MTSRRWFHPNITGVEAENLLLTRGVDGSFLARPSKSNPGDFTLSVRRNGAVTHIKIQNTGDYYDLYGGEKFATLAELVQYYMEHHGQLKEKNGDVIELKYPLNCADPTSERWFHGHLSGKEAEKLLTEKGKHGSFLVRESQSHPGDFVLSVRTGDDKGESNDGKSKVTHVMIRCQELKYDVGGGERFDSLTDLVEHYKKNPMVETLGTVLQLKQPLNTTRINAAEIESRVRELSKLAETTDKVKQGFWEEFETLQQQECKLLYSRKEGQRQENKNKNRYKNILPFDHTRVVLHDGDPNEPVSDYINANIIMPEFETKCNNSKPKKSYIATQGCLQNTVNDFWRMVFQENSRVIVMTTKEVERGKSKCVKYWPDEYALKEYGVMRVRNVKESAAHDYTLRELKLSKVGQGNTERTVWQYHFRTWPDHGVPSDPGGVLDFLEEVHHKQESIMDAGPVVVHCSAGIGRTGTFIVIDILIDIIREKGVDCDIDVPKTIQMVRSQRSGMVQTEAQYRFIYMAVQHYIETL
Format: biochemical
Description: SHP2 Inhibition Enzymatic Assay
Assay volume of 20 μL/well was assembled in 384 well black polystyrene low-binding microplates (Greiner), using the following buffer: 60 mM HEPES pH 7.2, 75 mM NaCl, 75 mM KCl, 1 mM EDTA pH 8, 0.05% tween-20, 5 mM DTT. The SHP-2 enzyme (synthetized by Origene, Met1-Leu525, cat #TP750155) was used at a final concentration of 0.5 nM.
Briefly, DMSO serially diluted testing compounds were transferred to the bottom of the assay plate. SHP2 was then added together with the IRS1 peptide. 30 minutes post incubation, the DiFMUP substrate was added to the reaction and incubated 30 min at room temperature. […] The fluorescence was detected by a microplate reader (Envision, PerkinElmer) according to the DiFMUP excitation and emission wavelength. The lower the fluorescence the higher the SHP2 inhibition.
The percentage inhibition is fitted against the compound dilutions with a four-parameter logistic regression. The inflection point (i.e. the concentration at which half-maximal inhibition is achieved) is the IC50.

IC50 [µM] | Compound
0.5 to 3 | CC1(N)CCN(c2nc3nc(Sc4cccc5c4C(=O)CC5)cnc3[nH]2)CC1 [Example 76, 7-((2-(4-amino-4-methylpiperidin-1-yl)-1H-imidazo[4,5-b]pyrazin-5-yl)thio)-2,3-dihydro-1H-inden-1-one]
> 3 | CC1(N)CCN(c2nc3nc(Sc4ccn5nccc5n4)cnc3[nH]2)CC1 [Example 65, 4-methyl-1-(5-(pyrazolo[1,5-a]pyrimidin-5-ylthio)-1H-imidazo[4,5-b]pyrazin-2-yl)piperidin-4-amine]
> 3 | CC1(N)CCN(c2nc3nc(Sc4ccc(OC(F)(F)F)cc4)cnc3[nH]2)CC1 [Example 27, 4-methyl-1-(5-((4-(trifluoromethoxy)phenyl)thio)-1H-imidazo[4,5-b]pyrazin-2-yl)piperidin-4-amine]
0.5 to 3 | FC(F)(F)c1ncccc1Sc1cnc2[nH]c(N3CC4(CCCNC4)C3)nc2n1 [Example 17, 2-(2,6-diazaspiro[3.5]nonan-2-yl)-5-((2-(trifluoromethyl)pyridin-3-yl)thio)-1H-imidazo[4,5-b]pyrazine]
> 3 | FC(F)(F)c1ncccc1Sc1cnc2[nH]c(NCC3CCNCC3)nc2n1 [Example 110, N-(piperidin-4-ylmethyl)-5-((2-(trifluoromethyl)pyridin-3-yl)thio)-1H-imidazo[4,5-b]pyrazin-2-amine]
0.5 to 3 | CC1(N)CCN(c2nc3nc(Sc4cccc(C5CC5)c4)cnc3[nH]2)CC1 [Example 46, 1-(5-((3-cyclopropylphenyl)thio)-1H-imidazo[4,5-b]pyrazin-2-yl)-4-methylpiperidin-4-amine]
< 0.5 | CC1(N)CCN(c2nc3nc(Sc4ccc(C(=O)O)cc4Cl)cnc3[nH]2)CC1 [Example 99, 4-((2-(4-amino-4-methylpiperidin-1-yl)-1H-imidazo[4,5-b]pyrazin-5-yl)thio)-3-chlorobenzoic acid]
0.5 to 3 | Cn1c(N2CCC(C)(N)CC2)nc2ncc(Sc3cccnc3C(F)(F)F)nc21 [Example 4, 4-methyl-1-(1-methyl-6-((2-(trifluoromethyl)pyridin-3-yl)thio)-1H-imidazo[4,5-b]pyrazin-2-yl)piperidin-4-amine]
0.5 to 3 | CC1(N)CCN(c2nc3ncc(Sc4cccnc4)nc3[nH]2)CC1 [Example 12, 4-methyl-1-(6-(pyridin-3-ylthio)-1H-imidazo[4,5-b]pyrazin-2-yl)piperidin-4-amine]
< 0.5 | CC1(N)CCN(c2nc3nc(Sc4cccc5ccncc45)cnc3[nH]2)CC1 [Example 92, 1-(5-(isoquinolin-8-ylthio)-1H-imidazo[4,5-b]pyrazin-2-yl)-4-methylpiperidin-4-amine]
0.5 to 3 | CC1(N)CCN(c2nc3nc(Sc4cccc(F)c4F)cnc3[nH]2)CC1 [Example 21, 1-(5-((2,3-difluorophenyl)thio)-1H-imidazo[4,5-b]pyrazin-2-yl)-4-methylpiperidin-4-amine]
0.5 to 3 | CNC1CCN(c2nc3nc(Sc4cccnc4C(F)(F)F)cnc3[nH]2)CC1 [Example 16, N-methyl-1-(5-((2-(trifluoromethyl)pyridin-3-yl)thio)-1H-imidazo[4,5-b]pyrazin-2-yl)piperidin-4-amine]
0.5 to 3 | Cn1ncc2cc(Sc3cnc4nc(N5CCC(C)(N)CC5)[nH]c4n3)ccc21 [Example 6, 4-methyl-1-(6-((1-methyl-1H-indazol-5-yl)thio)-1H-imidazo[4,5-b]pyrazin-2-yl)piperidin-4-amine]
0.5 to 3 | NC1CCCN(c2nc3nc(Sc4cccnc4C(F)(F)F)cnc3[nH]2)CC1 (stereo not shown) [Example 85, 1-(5-((2-(trifluoromethyl)pyridin-3-yl)thio)-1H-imidazo[4,5-b]pyrazin-2-yl)azepan-4-amine]
> 3 | CC(C)(CNc1nc2nc(Sc3cccnc3C(F)(F)F)cnc2[nH]1)Cc1cccnc1 [Example 113, N-(2,2-dimethyl-3-(pyridin-3-yl)propyl)-5-((2-(trifluoromethyl)pyridin-3-yl)thio)-1H-imidazo[4,5-b]pyrazin-2-amine]
0.5 to 3 | CC(N)CCNc1nc2nc(Sc3cccnc3C(F)(F)F)cnc2[nH]1 (stereo not shown) [Example 54, N1-(5-((2-(trifluoromethyl)pyridin-3-yl)thio)-1H-imidazo[4,5-b]pyrazin-2-yl)butane-1,3-diamine]

IC50 [µM] | Compound
> 3 | N[C@@H]1CCCC12CCN(c1nc3ncc(N4CCCc5ncccc54)nc3[nH]1)CC2 [Example 120, (R)-8-(6-(3,4-dihydro-1,5-naphthyridin-1(2H)-yl)-1H-imidazo[4,5-b]pyrazin-2-yl)-8-azaspiro[4.5]decan-1-amine]
> 3 | CC1(N)CCN(c2nc3nc(Sc4ncnc5ccccc45)cnc3[nH]2)CC1 [Example 101, 4-methyl-1-(5-(quinazolin-4-ylthio)-1H-imidazo[4,5-b]pyrazin-2-yl)piperidin-4-amine]
0.5 to 3 | CC1(N)CCN(c2nc3nc(Sc4cccc5ncncc45)cnc3[nH]2)CC1 [Example 100, 4-methyl-1-(5-(quinazolin-5-ylthio)-1H-imidazo[4,5-b]pyrazin-2-yl)piperidin-4-amine]
0.5 to 3 | CC1(N)CCN(c2nc3nc(Sc4cccc(-c5ccccc5)c4)cnc3[nH]2)CC1 [Example 58, 1-(5-([1,1′-biphenyl]-3-ylthio)-1H-imidazo[4,5-b]pyrazin-2-yl)-4-methylpiperidin-4-amine]
0.5 to 3 | FC(F)(F)c1ncccc1Sc1cnc2[nH]c(NC3CC4(CNC4)C3)nc2n1 [Example 84, N-(2-azaspiro[3.3]heptan-6-yl)-5-((2-(trifluoromethyl)pyridin-3-yl)thio)-1H-imidazo[4,5-b]pyrazin-2-amine]
> 3 | CC1(N)CCN(c2nc3ncc(Sc4csc5ccccc45)nc3[nH]2)CC1 [Example 30, 1-(6-(benzo[b]thiophen-3-ylthio)-1H-imidazo[4,5-b]pyrazin-2-yl)-4-methylpiperidin-4-amine]
0.5 to 3 | CC1(N)CCN(c2nc3nc(Sc4ccnc5ncccc45)cnc3[nH]2)CC1 [Example 105, 1-(5-((1,8-naphthyridin-4-yl)thio)-1H-imidazo[4,5-b]pyrazin-2-yl)-4-methylpiperidin-4-amine]
< 0.5 | CC1(N)CCN(c2nc3nc(Sc4cccc5c4COC5)cnc3[nH]2)CC1 [Example 77, 1-(5-((1,3-dihydroisobenzofuran-4-yl)thio)-1H-imidazo[4,5-b]pyrazin-2-yl)-4-methylpiperidin-4-amine]
0.5 to 3 | CC1(N)CCN(c2nc3nc(Sc4cccc(C(F)(F)F)n4)cnc3[nH]2)CC1 [Example 47, 4-methyl-1-(5-((6-(trifluoromethyl)pyridin-2-yl)thio)-1H-imidazo[4,5-b]pyrazin-2-yl)piperidin-4-amine]
< 0.5 | N[C@@H]1c2ccccc2CC12CCN(c1nc3nc(Sc4cccnc4C(F)(F)F)c(Cl)nc3[nH]1)CC2 [Example 118, (S)-1′-(6-chloro-5-((2-(trifluoromethyl)pyridin-3-yl)thio)-1H-imidazo[4,5-b]pyrazin-2-yl)-1,3-dihydrospiro[indene-2,4′-piperidin]-1-amine]
< 0.5 | CN(C)c1ncccc1Sc1cnc2[nH]c(N3CCC4(CC3)Cc3ccccc3[C@H]4N)nc2n1 [Example 211, (S)-1′-(5-((2-(dimethylamino)pyridin-3-yl)thio)-1H-imidazo[4,5-b]pyrazin-2-yl)-1,3-dihydrospiro[indene-2,4′-piperidin]-1-amine]
> 3 | NC(=O)C1CCN(c2nc3nc(Sc4cccnc4C(F)(F)F)cnc3[nH]2)CC1 [Example 51, 1-(5-((2-(trifluoromethyl)pyridin-3-yl)thio)-1H-imidazo[4,5-b]pyrazin-2-yl)piperidine-4-carboxamide]
> 3 | Cn1nc(-c2ccc(Sc3cnc4[nH]c(N5CCC(C)(N)CC5)nc4n3)s2)cc1C(F)(F)F [Example 57, 4-methyl-1-(5-((5-(1-methyl-5-(trifluoromethyl)-1H-pyrazol-3-yl)thiophen-2-yl)thio)-1H-imidazo[4,5-b]pyrazin-2-yl)piperidin-4-amine]
> 3 | CC1(N)CCN(c2nc3nc(Nc4cccc(Cl)c4Cl)cnc3[nH]2)CC1 [Example 121, 2-(4-amino-4-methylpiperidin-1-yl)-N-(2,3-dichlorophenyl)-1H-imidazo[4,5-b]pyrazin-5-amine]
0.5 to 3 | COCCn1c(N2CCC(C)(N)CC2)nc2nc(Sc3cccnc3C(F)(F)F)cnc21 [Example 129, 1-(1-(2-methoxyethyl)-5-((2-(trifluoromethyl)pyridin-3-yl)thio)-1H-imidazo[4,5-b]pyrazin-2-yl)-4-methylpiperidin-4-amine]
